Series [1] has as its target T1, EphA2 extracellular domain fused to Fc (EphA2-Fc) (Homo sapiens, UniProt P29317).
T1 construct: immobilized EphA2 extracellular domain fused to the Fc portion of an antibody (EphA2-Fc)
Nature of the series: ELISA: inhibition of ephrinA5-AP binding to immobilized EphA2-Fc. Conditions: inhibition of ephrin-A5 binding to EphA2; number of experiments in parentheses; read-out: Inc50 (nM) by ELISA. An excerpt:
FIG. 1A-1C illustrates an example of Potency and selectivity of EphA2-targeting dimeric peptides. (FIG. 1A) ELISAs comparing the ability of the peptides to inhibit binding of ephrin-A5 fused to alkaline phosphatase (ephrinA5-AP) to the immobilized EphA2 extracellular domain fused to the Fc portion of an antibody (EphA2-Fc). The graphs show averages ±SD from triplicate measurements from a representative experiment. IC50 values calculated from the fitted curves in each experiment are shown. Averages of IC50 values obtained from multiple experiments are shown in panel FIG. 1B and Table 3. The 10 nM peptide concentration is outlined in red. (FIG. 1B) Plot of the average IC50 values (listed in Table 3) for different ligands. […] (FIG. 1C) EphrinA5-AP binding to EphA receptors and ephrinB2-AP binding to EphB receptors in the presence of dimeric peptides representing each of the three configurations. Values are normalized to ephrin binding without peptide. The graphs show averages and SDs from triplicate measurements (with each measurement shown as a dot).
A general note: An ELISA detects its analyte on a solid surface through an enzyme-linked reagent.

Series [2] in a line: Peptide solubility in PBS/H2O/DMSO. It counts as physicochemical. Here is the method:
Peptide identity and purity are documented by mass spectrometry and high-performance liquid chromatography (HPLC). The peptide solubility values are determined. Concentrated peptide stocks are prepared in DMSO or H2O and stored frozen at −80° C.

The target of series [3] is T2, EphA2 (Homo sapiens, UniProt P29317). The experiment in a line: EphA2 autophosphorylation on tyrosine 588 in PC3 cells (immunoblot dose-response). Conditions: for Etop pY588: Table 3, 15 min, saturating ligand, pY588/EphA2 normalized to ephrinA1-Fc. Type of series: cell-based. The arrangement: EphA2 is the prevalent endogenously expressed EphA receptor in these cells; endogenous in cells; host or cells: PC3 prostate cancer cells. Here is the method:
(§1) (FIG. 2A) Dose-response curves for EphA2 autophosphorylation on tyrosine 588 (pY588; purple) and for downstream inhibition of AKT phosphorylation (magenta). PC3 cells were treated for 15 min with different concentrations of the indicated peptides. […] The graphs show quantifications from multiple blots (averages ±SE; the number of experiments used to generate each curve is shown in Table 3). […] (FIG. 2B) Examples of immunoblots of lysates from PC3 cells treated with the indicated concentrations of representative ligands. […] A white vertical line indicates removal of irrelevant lanes. […] The bars show averages ±SE, and the individual measurements are shown as black dots. […] Plots of Etop versus EC50 for pY588 in FIG. 2D and for pAKT inh in FIG. 2E. Averages ±SE are shown for the peptides and ephrinA1.
To examine the agonistic properties of the different dimeric peptide ligands, EphA2 autophosphorylation on tyrosine 588 (Y588) was measured, which is indicative of receptor activation and mediates binding of SH2 domain-containing proteins that link EphA2 to various downstream signaling pathways (FIG. 7). For these experiments, PC3 prostate cancer cells were stimulated with the dimeric peptides because EphA2 is the prevalent endogenously expressed EphA receptor in these cells, allowing comparisons with ephrins.
A general note: In western blotting, separated proteins are transferred to a membrane and probed.

Series [4] concerns the target T2, EphA2. Nature of the series: Bias factor βlig (pY588 versus pAKT inhibition, PC3 cells, reference ephrinA1-Fc). It counts as cell-based. The arrangement: EphA2 is the prevalent endogenously expressed EphA receptor in these cells; endogenous in cells; host or cells: PC3 prostate cancer cells. The following applies: for βu (bias factor βlig): Table 3, reference ligand ephrinA1-Fc (βlig=0). Here is the method:
FIG. 6 illustrates an example where Ligands can bias EphA2 signaling responses. The bias factor βlig was calculated for the indicated ligands using ephrinA1-Fc as the reference ligand. Statistical significance for the comparison of the different ligands with the reference ligand ephrinA1-Fc (βlig=0) was determined by one sample t test; *, P<0.05; **, P<0.01; ***, P<0.001; ****, P<0.0001.
FIG. 14A-14E illustrates an example where distinct factors are responsible for EphA2 biased signaling induced by different ligands. (FIG. 14A) Etop values for EphA2 Y588 phosphorylation, as in FIG. 2C. (FIG. 14B) Etop values for inhibition of AKT phosphorylation. (FIG. 14C) Graph of the ratios of the Etop values for EphA2 Y588 phosphorylation and inhibition of AKT phosphorylation, which are used in the βlig calculation. (FIG. 14D) Graph of the ratios of the EC50 values for EphA2 Y588 phosphorylation and inhibition of AKT phosphorylation, which are used in the βlig calculation. (FIG. 14E) Equation used to calculate the bias factor βlig for each ligand. The terms of the equation are rearranged, compared to equation (1) in the Materials and Methods, to better conform to the graphs in FIG. 14A-14D. **, P<0.01; ***, P<0.001; ****, P<0.0001; ns, not significant for the comparison with ephrinA1-Fc by one-way ANOVA and Dunnett's posthoc test.
The possibility of EphA2 biased signaling by analyzing the dose-response curves obtained with endogenous EphA2 in PC3 cells (FIG. 2A) was explored using approaches developed for GPCRs. This involves using EphA2 Y588 phosphorylation and AKT phosphorylation quantified as a function of ligand concentration to determine and compare the potency (EC50) and efficacy (Etop) for the two responses induced by different ligands. Remarkably, large differences among the ligands in the Etop values for Y588 phosphorylation (FIGS. 2C, 2D and 14A), but not in the Etop values for AKT inhibition (FIGS. 2E and 14B), were observed. In terms of relative efficacies for pY588 and pAKT inhibition, the C-terminally linked dimers and monomeric ligands behave differently from ephrinA1-Fc, while the N-terminally linked dimers and the head-to-tail dimer (8) are similar to ephrinA1-Fc (FIG. 14C). […] Thus, the type of linkage affects EphA2 signaling properties induced by the dimeric peptides.
The determined EC50 and Etop values allowed us to calculate the bias factor βlig for the two different responses induced by the various ligands relative to ephrinA1-Fc as the reference ligand (FIG. 14E). […] Remarkably, the bias originates from different mechanisms that depend on the class of ligands, with the N-terminally linked and head-to-tail dimers modulating relative potencies and the C-terminally-linked dimers and monomers modulating relative efficacies.

The target of a further series is T3, EphA2 LBD (Homo sapiens, UniProt P29317).
T3 construct: made in house; host or cells: E. coli Origami 2(DE3)
Nature of the series: Isothermal titration calorimetry (ITC) with soluble EphA2 LBD. It counts as binding. Here is the method:
(FIG. 10A-10E) The EphA2 LBD was titrated at 200-250 μM into 10-12.5 μM of the indicated peptide.
For ITC, all peptides are dissolved in DMSO and both the EphA2 LBD and the peptides are diluted to obtain a final buffer containing 9.5 mM HEPES, pH 7.9, 95 mM NaCl, and 5% DMSO. The experiments are carried out at 296 K (23° C.) using an ITC200 calorimeter (Microcal). Two-microliter aliquots of a peptide solution are injected into the cell containing 205 μL EphA2 LBD. 200-400 μM peptides are titrated into 20-40 μM EphA2 LBD. Experimental data are analyzed using the Origin software package (Microcal). The integrated values for the reaction heats are normalized to the amount of injected peptide after blank subtraction.

Another series has as its system AKT. Nature of the series: Inhibition of AKT phosphorylation on S473 in PC3 cells. Type of series: cell-based. Conditions: for EC50 / Etop pAKT inhlb: Table 3; for EC50: PC3 cells treated for 15 min, read-out: ECsa pAKT inhlb.; for Etop pAKT inhlb: 15 min, 1-pAKT/AKT normalized to cells not treated with ligand. Here is the method:
as §1

Where [5] appears, read: DMSO, Table 4, third of PBS/H20/DMSO, read-out: Solubility in DMSO.
Setting [6] is: DMSO, third of PBS/H2O/DMSO, read-out: Solubility in DMSO.
The mark [7] stands for this setting: PBS, Table 4, first of PBS/H20/DMSO, read-out: Solubility in PBS.
[8] abbreviates: PBS, first of PBS/H2O/DMSO, read-out: Solubility in PBS.
Setting [9] is: water, Table 4, second of PBS/H20/DMSO, read-out: Solubility in H20.
The mark [10] stands for this setting: water, second of PBS/H2O/DMSO, read-out: Solubility in H2O.

Two molecules from US20230391826A1, “COMPOSITIONS AND METHODS FOR TREATING DISEASES” (Sanford Burnham Prebys Medical Discovery Institute, priority 2020, published 2023) can be followed below.

≈ marks a conversion by molar mass, not a printed value. Where two headings read alike, the source gives them in different places. Where a SMILES comes first, the peptide text is derived from it. Bridges are numbered along the chain shown (N, C = ends). Roman numbers before positions name the chains, in order. [ ]: non-standard residue; d: D form. βAla = NCCC(=O)O

T3 sequence (P29317 28-200): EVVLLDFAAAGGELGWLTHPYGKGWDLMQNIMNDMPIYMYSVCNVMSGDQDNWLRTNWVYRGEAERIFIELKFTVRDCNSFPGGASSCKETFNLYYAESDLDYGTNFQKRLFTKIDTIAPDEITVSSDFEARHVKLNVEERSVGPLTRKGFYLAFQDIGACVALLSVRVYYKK
T2 sequence (P29317 24-976): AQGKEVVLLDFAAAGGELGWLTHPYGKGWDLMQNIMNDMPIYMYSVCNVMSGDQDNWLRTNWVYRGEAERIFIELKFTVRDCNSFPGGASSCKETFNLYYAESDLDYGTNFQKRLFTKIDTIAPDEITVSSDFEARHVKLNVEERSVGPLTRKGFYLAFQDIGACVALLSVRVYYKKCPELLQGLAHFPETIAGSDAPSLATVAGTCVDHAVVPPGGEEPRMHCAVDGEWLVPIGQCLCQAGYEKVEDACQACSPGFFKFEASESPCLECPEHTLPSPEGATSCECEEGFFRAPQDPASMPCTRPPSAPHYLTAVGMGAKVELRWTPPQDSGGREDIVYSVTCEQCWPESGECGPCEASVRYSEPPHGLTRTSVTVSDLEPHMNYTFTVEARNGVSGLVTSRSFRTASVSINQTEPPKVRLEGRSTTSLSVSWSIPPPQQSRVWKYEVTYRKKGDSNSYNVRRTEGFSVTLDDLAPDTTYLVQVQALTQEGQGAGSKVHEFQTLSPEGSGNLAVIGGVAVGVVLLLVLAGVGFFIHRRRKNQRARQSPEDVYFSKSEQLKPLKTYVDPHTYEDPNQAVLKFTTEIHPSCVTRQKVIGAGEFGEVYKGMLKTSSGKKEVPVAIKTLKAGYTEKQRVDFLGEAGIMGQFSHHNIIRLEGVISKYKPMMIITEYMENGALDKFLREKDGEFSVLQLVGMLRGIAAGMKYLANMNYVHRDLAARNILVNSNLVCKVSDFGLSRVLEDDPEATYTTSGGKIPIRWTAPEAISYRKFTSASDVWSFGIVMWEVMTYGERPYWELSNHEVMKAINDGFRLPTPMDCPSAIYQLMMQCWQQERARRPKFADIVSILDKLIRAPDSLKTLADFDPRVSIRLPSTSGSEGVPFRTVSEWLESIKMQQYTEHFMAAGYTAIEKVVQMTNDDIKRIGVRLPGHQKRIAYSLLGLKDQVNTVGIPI
T1 sequence (P29317 24-537 limits assumed): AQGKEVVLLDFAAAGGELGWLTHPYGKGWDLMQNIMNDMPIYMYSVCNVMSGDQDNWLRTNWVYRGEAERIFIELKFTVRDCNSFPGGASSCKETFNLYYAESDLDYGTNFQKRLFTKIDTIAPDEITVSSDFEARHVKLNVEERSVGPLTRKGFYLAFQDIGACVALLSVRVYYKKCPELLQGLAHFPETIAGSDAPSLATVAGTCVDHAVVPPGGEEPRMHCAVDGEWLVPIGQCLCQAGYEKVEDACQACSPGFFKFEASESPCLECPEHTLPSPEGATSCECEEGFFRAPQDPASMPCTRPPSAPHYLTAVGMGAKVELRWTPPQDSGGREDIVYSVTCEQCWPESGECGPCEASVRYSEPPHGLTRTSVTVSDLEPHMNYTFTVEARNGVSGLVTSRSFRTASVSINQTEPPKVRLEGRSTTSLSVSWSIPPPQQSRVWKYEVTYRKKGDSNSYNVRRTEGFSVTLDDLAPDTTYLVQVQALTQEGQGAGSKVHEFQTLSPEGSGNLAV

For `CC(C)C[C@H](NC(=O)[C@H](Cc1c[nH]c2ccccc12)NC(=O)CCN)C(=O)N[C@@H](C)C(=O)N[C@@H](Cc1ccc(O)cc1)C(=O)N1CCC[C@H]1C(=O)N[C@@H](CC(=O)O)C(=O)N[C@@H](CO)C(=O)N[C@H](C(=O)N1CCC[C@H]1C(=O)N[C@@H](Cc1ccc(O)cc1)C(=O)NCC(=O)N[C@@H](CO)C(=O)NCC(=O)N[C@@H](CSSC[C@H](NC(=O)CNC(=O)[C@H](CO)NC(=O)CNC(=O)[C@H](Cc1ccc(O)cc1)NC(=O)[C@@H]1CCCN1C(=O)[C@@H](NC(=O)[C@H](CO)NC(=O)[C@H](CC(=O)O)NC(=O)[C@@H]1CCCN1C(=O)[C@H](Cc1ccc(O)cc1)NC(=O)[C@H](C)NC(=O)[C@H](CC(C)C)NC(=O)[C@H](Cc1c[nH]c2ccccc12)NC(=O)CCN)C(C)C)C(=O)O)C(=O)O)C(C)C` [compound 1, βA-WLA-YGSGC dimer (C-ter)] (I: H-[βAla]WLAYPDSVPYGSGC-OH / II: H-[βAla]WLAYPDSVPYGSGC-OH; disulfide I:15-II:15; N-terminus and C-terminus assumed), in series [1], the IC50 worked out at 71 ± 26 nM. Moreover, the solubility (in general, how much of the substance goes into solution per volume) in series [2] (setting [5]) was 5000 µg/mL (≈ 1580 µM); in series [2] (setting [6]) it was 5000 µg/mL (≈ 1580 µM); in series [2] (setting [7]), under 100 µg/mL; in series [2] (setting [8]) it was under 100 µg/mL; in series [2] (setting [9]), under 100 µg/mL; in series [2] (setting [10]), under 100 µg/mL. The “Etop pY588” value on EphA2 [3] is given as 0.49 ± 0.06. For the same molecule, the “βu (bias factor βlig)” value at EphA2 [4] was determined as 0.506 ± 0.12. Moreover, the Kd (commonly the free concentration of one partner at which half of the binding sites on the other are occupied at equilibrium, for simple one-to-one binding) on EphA2 LBD turned out to be 2900 nM. The “N (binding stoichiometry by ITC)” value at EphA2 LBD (Table 3) was “N = 1.7 ± 0.2”. The “-TΔS” value on EphA2 LBD (Table 6) came to 16.30 ± 11 kcal/mol. For the same molecule, the N at EphA2 LBD (Table 6, binding stoichiometry) is reported as 1.7 ± 0.2. Moreover, the “ΔG” value at EphA2 LBD (Table 6, change in Gibbs energy) was -7.55 ± 0.27 kcal/mol. On EphA2 LBD (Table 6, change in enthalpy), the “ΔH” value was -23.85 ± 11 kcal/mol. Besides, in the series with AKT, the EC50 turned out to be 39 ± 8 nM. Besides, the “Etop pAKT inhlb” value in the series with AKT (PC3 cells) was determined as 0.90 ± 0.04.

Regarding `CC(C)C[C@H](NC(=O)[C@H](Cc1c[nH]c2ccccc12)NC(=O)[C@H](C)NC(=O)CNC(=O)[C@@H](N)CSSC[C@H](N)C(=O)NCC(=O)N[C@@H](C)C(=O)N[C@@H](Cc1c[nH]c2ccccc12)C(=O)N[C@@H](CC(C)C)C(=O)N[C@@H](C)C(=O)N[C@@H](Cc1ccc(O)cc1)C(=O)N1CCC[C@H]1C(=O)N[C@@H](CC(=O)O)C(=O)N[C@@H](CO)C(=O)N[C@H](C(=O)N1CCC[C@H]1C(=O)N[C@@H](Cc1ccc(O)cc1)C(=O)N[C@@H](CCCNC(=N)N)C(=O)N1CCC[C@H]1C(=O)N[C@@H](CCCCN)C(N)=O)C(C)C)C(=O)N[C@@H](C)C(=O)N[C@@H](Cc1ccc(O)cc1)C(=O)N1CCC[C@H]1C(=O)N[C@@H](CC(=O)O)C(=O)N[C@@H](CO)C(=O)N[C@H](C(=O)N1CCC[C@H]1C(=O)N[C@@H](Cc1ccc(O)cc1)C(=O)N[C@@H](CCCNC(=N)N)C(=O)N1CCC[C@H]1C(=O)N[C@@H](CCCCN)C(N)=O)C(C)C` [compound 6, CGA-WLA-YRPKam dimer (N-ter)], the IC50 in series [1] came to 0.4 ± 0.1 nM; in the series with AKT (PC3 cells), 0.043 ± 0.007 nM. The solubility in series [2] (setting [5]) was 10000 µg/mL (≈ 2750 µM); in series [2] (setting [6]), 10000 µg/mL (≈ 2750 µM); in series [2] (setting [7]) it was under 100 µg/mL; in series [2] (setting [8]), under 100 µg/mL; in series [2] (setting [9]) it was 5000 µg/mL (≈ 1370 µM); in series [2] (setting [10]), 5000 µg/mL (≈ 1370 µM). Further, the “Etop pY588” value on EphA2 [3] worked out at 0.98 ± 0.08. Moreover, the “Emax PY588” value at EphA2 [3] (ephrinA1Fc = 1.00) was determined as 0.80 ± 0.01. Further, the EC50 at EphA2 [3] (read-out: EC50 PY588) was 0.12 ± 0.01 nM; with AKT it was 0.08 ± 0.02 nM. The “βu (bias factor βlig)” value on EphA2 [4] is 0.51 ± 0.13. For the same molecule, on EphA2 [4] (bias factor, reference ligand ephrinA1Fc), the Blig was found to be 0.36 ± 0.09. Moreover, the “Etop pAKT inhlb” value in the series on AKT (PC3 cells) came to 0.97 ± 0.03.
